Entries after “also recorded” stand apart in the source; their conditions may differ.
What was measured:
[1] = cited from earlier work
chronic fatigue syndrome = assay: Effect of menthocarvol (oral capsule or topical ointment) on chronic fatigue; format: in vivo, human
Protocol: (§1) In one embodiment menthocarvol was made by reacting carvacrol with hydrogen under a nitrogen atmosphere in the presence of platinum, as a catalyst, to form menthocarvol. The menthocarvol was administered orally as capsules and topically as ointments to human volunteers to establish that the preliminary preferred formulation functioned to cure specific disease conditions.
The presence of bacteria ([…]), parasites (entamoeba gingivalis, or trichomonas tenax) and/or fungi (Candida, or Aspergillus species) in the mouth, nose, or sinus cavities is often accompanied by a history of generalized malaise, fatigue, and frequent headaches, frequently referred to as general fatigue syndrome. Laboratory testing for pathogens is usually negative. People suffering from fatigue syndrome typically function at a substantially lower level of activity than they were capable of before the onset of fatigue symptoms. Fatigue is not improved by bed rest and may be exacerbated by physical or mental activity. Moreover, the presence of some microorganisms in the stomach (i.e. Helicobacter pylori) and bowels, especially in diverticulas (outpouchings of the intestinal mucosa), is often accompanied by malaise and headache.
In the United States, colonic diverticula occurs in approximately 50% of individuals older than 60 years of age. Treatment with menthocarvol of volunteers suffering from this chronic fatigue syndrome was conducted. The menthocarvol therapy was administered in an oral dose of a single 250 mg capsule (17.5 mg active ingredient) or 500 mg capsule (35 mg active ingredient). Two of the subjects, who had localized pain in an extremity, were treated topically with menthocarvol in an ointment (3% active ingredient in lanolin oil). A total of six active individuals complaining of fatigue syndrome participated in this study.

periodontal disease = assay: Effect of orally applied menthocarvol solution on periodontal disease; format: in vivo, human
Protocol: A study on three subjects was performed to test the effectiveness of orally applied ointments containing menthocarvol to treat periodontal disease in humans. The preliminary formulation used was first was a 3% solution of menthocarvol followed by treatment with a 0.6% solution, administered twice a week for three months. The treatment was given with a syringe and applied orally to the affected areas between the teeth at the gum line. […] This phenomenon disappeared in approximately two hours.

diarrhea = assay: Effect of menthocarvol capsules on patients with diarrhea; format: in vivo, human; settings: for time to complete recovery: with oral rehydration
Protocol: as §1
Four human subjects were selected for this study with menthocarvol. In this study, the diarrhea symptoms were likely, from either acute bacterial infectous causes or food poisoning. The menthocarvol was administered orally in the form of capsules. Each 500 mg capsule contained 35 mg of the active ingredient. The therapy for each subject was usually oral administration of two 500 mg capsules.

[2] = six individuals, oral and topical formulations
[3] = four patients, two 500 mg capsules orally

SMILES: Cc1ccc(C(C)C)cc1O [carvacrol, 5-isopropyl-2-methylphenol]
- solubility in lipids [1]: soluble in lipids

SMILES: CC(C)C1CCC(C)C(O)C1 (stereo not drawn) [menthocarvol, hexahydrocarvacrol]
- effect on fatigue syndrome symptoms (chronic fatigue syndrome; Case 4, oral 500 mg capsule (35 mg active ingredient) after breakfast for five days): the fatigue and muscle soreness disappeared
- effect on fatigue syndrome symptoms (chronic fatigue syndrome; single cases, oral 250 mg capsule (17.5 mg active ingredient) after breakfast for five or ten days): the symptoms of malaise and unrefreshing sleep disappeared; also recorded: The sore throat and pain disappeared after five days of treatment; also recorded: the symptoms of fatigue and headache were relieved
- adverse side effects (chronic fatigue syndrome; single cases, oral 250 mg or 500 mg capsule after breakfast for five days): No adverse side effects were reported; also recorded: No adverse side affects were reported
- effect on localized pain in an extremity (chronic fatigue syndrome; single cases, topical cream, 3% active ingredient in lanolin oil, applied before exercise): The signs of leg and foot muscle fatigue disappeared after the tenth treatment; also recorded: The pain and swelling was significantly reduced after six applications
- effect on fatigue and pain, all cases (chronic fatigue syndrome; [2]): positive effects on the fatigue and pain
- unpleasant or adverse side effects, all subjects (chronic fatigue syndrome; [2]): No subjects complained of unpleasant or adverse side effects
- local side effect (tingling sensation) (periodontal disease; 0.6% solution): This side effect was not observed
- infection and observable periodontal disease (periodontal disease; 0.6% solution only, same three patients): some improvement
- local side effect on gums and tongue (periodontal disease; 3% solution): a temporary tingling sensation on the gums
- necrotic effect on the epithelial cells lining the mouth cavity (periodontal disease; 3% solution): no observable necrotic effect
- time until the tingling sensation disappeared (periodontal disease; 3% solution): approximately two
- inflammation of gums (periodontal disease; 3% solution applied at the gum line, three patients): a marked improvement in the inflammation of their gums was observed
- time to complete recovery (diarrhea; Case 3, two 500 mg capsules orally): 24 h
- cure of diarrhea, all four patients (diarrhea; [3]): the diarrhea was cured quickly
- unpleasant or adverse side effects (diarrhea; [3]): None of the patients reported unpleasant or adverse side effects
- time to complete recovery (diarrhea; single cases, two 500 mg capsules orally): three and two

SMILES: CC1CCC(C(C)C)C(O)C1 (stereo not drawn) [menthol, 1-Methyl-4-isopropyl cyclohexane-3-ol, reference compound]
- solubility in lipids [1]: soluble in lipids

Reference: patent publication US20030225003A1, “Antimicrobial therapeutic compositions for oral and topical use” (priority 2002, published 2003)
